Results from PubChem BioAssay AID330 (DTP/NCI, 2004).
Values joined by “and” are separate entries in the source; they are usually repeats but may differ in a detail not shown here. Equal entries are not always repeated. Inconclusive results and toxic doses are left out. How the source made its calls: active means survival T/C of 150% or more; inactive means T/C below 125% in these data.

Test system: P388 leukemia ip, CD2F1 mice, survival T/C
Test: NCI In Vivo Anticancer Drug Screen. Data for tumor model P388 Leukemia (intraperitoneal) in CD2F1 (CDF1) mice
Settings: endpoint: median survival time, higher = longer survival
Summary of the method: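 Mice carrying the transplanted tumor received test compound or vehicle. Survival was recorded in each group, and the value is the treated-group measurement divided by that of the vehicle-treated control group.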

[1] = dose: 50.0 mg/kg/injection, schedule: Q01DX005 (ip), vehicle: saline with Tween-80
[2] = dose: 100.0 mg/kg/injection, schedule: Q01DX005 (ip), vehicle: saline with Tween-80
[3] = dose: 60.0 mg/kg/injection, schedule: Q01DX005 (ip), vehicle: Klucel (hydroxypropylcellulose) (HPC)
[4] = dose: 100.0 mg/kg/injection, schedule: Q01DX001 (ip), vehicle: Klucel (hydroxypropylcellulose) (HPC)
[5] = dose: 50.0 mg/kg/injection, schedule: Q01DX001 (ip), vehicle: saline with Tween-80
[6] = dose: 50.0 mg/kg/injection, schedule: Q01DX009 (ip), vehicle: saline with Tween-80
[7] = dose: 50.0 mg/kg/injection, schedule: Q01DX009 (ip), vehicle: saline
[8] = dose: 100.0 mg/kg/injection, schedule: Q01DX009 (ip), vehicle: saline
[9] = dose: 200.0 mg/kg/injection, schedule: Q01DX009 (ip), vehicle: saline

Measured: T/C

FC(F)(F)c1ccccc1NC(=S)SCc1ccccc1
inactive: dose: 50.0 mg/kg/injection, schedule: Q01DX009 (ip), vehicle: suspension in saline 91 % of control | dose: 100.0 mg/kg/injection, schedule: Q01DX009 (ip), vehicle: suspension in saline 90 % of control | dose: 200.0 mg/kg/injection, schedule: Q01DX009 (ip), vehicle: suspension in saline 90 % of control

CN1CCc2cc3c(cc2C1O)OCO3 (stereo unspecified)
inactive: [1] 100 % of control | [2] 110 % of control

COC(=O)[C@@H]1O[C@H]1c1ccccn1
inactive: dose: 25.0 mg/kg/injection, schedule: Q01DX005 (ip), vehicle: Klucel (hydroxypropylcellulose) (HPC) 96 % of control | dose: 50.0 mg/kg/injection, schedule: Q01DX005 (ip), vehicle: Klucel (hydroxypropylcellulose) (HPC) 97 % of control | dose: 100.0 mg/kg/injection, schedule: Q01DX005 (ip), vehicle: Klucel (hydroxypropylcellulose) (HPC) 100 % of control | dose: 200.0 mg/kg/injection, schedule: Q01DX005 (ip), vehicle: Klucel (hydroxypropylcellulose) (HPC) 97 % of control

Cc1ccc(NCCN(C)C)c2c(=O)c3cc(O)ccc3sc12
inactive: dose: 1.0 mg/kg/injection, schedule: Q01DX009 (ip), vehicle: saline with Tween-80 103 % of control | dose: 37.0 mg/kg/injection, schedule: Q01DX009 (ip), vehicle: Klucel (hydroxypropylcellulose) (HPC) 97 % of control | dose: 100.0 mg/kg/injection, schedule: Q01DX009 (ip), vehicle: Klucel (hydroxypropylcellulose) (HPC) 87 % of control
active: dose: 8.0 mg/kg/injection, schedule: Q01DX009 (ip), vehicle: Klucel (hydroxypropylcellulose) (HPC) 180 % of control | dose: 16.0 mg/kg/injection, schedule: Q01DX009 (ip), vehicle: Klucel (hydroxypropylcellulose) (HPC) 170 % of control | dose: 16.0 mg/kg/injection, schedule: Q01DX009 (ip), vehicle: saline with Tween-80 151 % of control | dose: 32.0 mg/kg/injection, schedule: Q01DX009 (ip), vehicle: Klucel (hydroxypropylcellulose) (HPC) 191 % of control | dose: 32.0 mg/kg/injection, schedule: Q01DX009 (ip), vehicle: saline with Tween-80 157 % of control | dose: 50.0 mg/kg/injection, schedule: Q01DX009 (ip), vehicle: Klucel (hydroxypropylcellulose) (HPC) 234 % of control | dose: 64.0 mg/kg/injection, schedule: Q01DX009 (ip), vehicle: Klucel (hydroxypropylcellulose) (HPC) 265 % of control

O=C(NC1COB(c2cc(C(F)(F)F)cc(C(F)(F)F)c2)OC1c1ccc([N+](=O)[O-])cc1)C(Cl)Cl (stereo unspecified)
inactive: [3] 100 % of control | dose: 120.0 mg/kg/injection, schedule: Q01DX005 (ip), vehicle: Klucel (hydroxypropylcellulose) (HPC) 100 % of control | dose: 240.0 mg/kg/injection, schedule: Q01DX005 (ip), vehicle: Klucel (hydroxypropylcellulose) (HPC) 99 % of control

OC1CC2(CC3(C1)SCCS3)SCCS2 (stereo unspecified)
inactive: [4] 102 % of control | dose: 200.0 mg/kg/injection, schedule: Q01DX001 (ip), vehicle: Klucel (hydroxypropylcellulose) (HPC) 99 % of control | dose: 400.0 mg/kg/injection, schedule: Q01DX001 (ip), vehicle: Klucel (hydroxypropylcellulose) (HPC) 106 % of control

COc1cc2c[n+](C)c3c(c2cc1OC)Cc1c-3ccc(O)c1OC
inactive: [4] 116 % of control

FC(F)(F)S.[Hg]
inactive: dose: 2.5 mg/kg/injection, schedule: Q04DX003 (ip), vehicle: saline 95 % of control | dose: 5.0 mg/kg/injection, schedule: Q04DX003 (ip), vehicle: saline 100 % of control | dose: 10.0 mg/kg/injection, schedule: Q04DX003 (ip), vehicle: saline 95 % of control

O=NN(CCCl)C(=O)Oc1ccc(F)cc1
inactive: dose: 3.12 mg/kg/injection, schedule: Q01DX001 (ip), vehicle: saline with Tween-80 118 % of control | dose: 6.25 mg/kg/injection, schedule: Q01DX001 (ip), vehicle: saline with Tween-80 116 % of control | [5] 106 % of control

O=[N+]([O-])c1c(Br)sc(Br)c1[N+](=O)[O-]
inactive: dose: 12.5 mg/kg/injection, schedule: Q01DX009 (ip), vehicle: saline with Tween-80 104 % of control | dose: 25.0 mg/kg/injection, schedule: Q01DX009 (ip), vehicle: saline with Tween-80 95 % of control | [6] 95 % of control

CC(=O)NO
inactive: [7] 104 % of control | [8] 96 % of control | [9] 103 % of control

Nc1ccc2cc(Cl)ccc2c1
inactive: dose: 16.5 mg/kg/injection, schedule: Q01DX009 (ip), vehicle: saline with Tween-80 90 % of control

COc1cc(CCC(=O)O)on1
inactive: [7] 101 % of control | [8] 109 % of control | [9] 108 % of control

Cc1[nH][nH]c(=O)c1[N+](=O)[O-]
inactive: [6] 99 % of control | dose: 100.0 mg/kg/injection, schedule: Q01DX009 (ip), vehicle: saline with Tween-80 108 % of control | dose: 200.0 mg/kg/injection, schedule: Q01DX009 (ip), vehicle: saline with Tween-80 114 % of control

c1ccc2c(c1)ccc1c[n+]3ccccc3cc12
inactive: dose: 0.25 mg/kg/injection, schedule: Q01DX009 (ip), vehicle: saline 100 % of control | dose: 0.5 mg/kg/injection, schedule: Q01DX009 (ip), vehicle: saline 104 % of control | dose: 1.0 mg/kg/injection, schedule: Q01DX009 (ip), vehicle: saline 100 % of control | dose: 1.25 mg/kg/injection, schedule: Q04DX003 (ip), vehicle: other 100 % of control | dose: 2.5 mg/kg/injection, schedule: Q04DX003 (ip), vehicle: other 107 % of control

O=C(NCC1OC(n2cnc3c(=O)[nH]cnc32)C(O)C1O)c1cccc(S(=O)(=O)F)c1 (stereo unspecified)
inactive: [5] 101 % of control | dose: 100.0 mg/kg/injection, schedule: Q01DX001 (ip), vehicle: saline with Tween-80 111 % of control | dose: 200.0 mg/kg/injection, schedule: Q01DX001 (ip), vehicle: saline with Tween-80 100 % of control

C[C@]12CCC(=O)C=C1CC[C@@H]1[C@@H]2CC[C@@]2(C)[C@H]1CCCN2CCO
inactive: dose: 25.0 mg/kg/injection, schedule: Q01DX001 (ip), vehicle: Klucel (hydroxypropylcellulose) (HPC) 99 % of control | dose: 50.0 mg/kg/injection, schedule: Q01DX001 (ip), vehicle: Klucel (hydroxypropylcellulose) (HPC) 103 % of control | [4] 99 % of control and 97 % of control

CC(=O)O[C@@H]1C[C@@](C)(C[C@H]2COC(=O)C2)[C@@H]2CC(=O)O[C@@H]3C[C@H]4C(C)=C[C@@H](O)C(=O)[C@]4(C)[C@@H]1[C@@]32C
inactive: dose: 1.5 mg/kg/injection, schedule: Q01DX009 (ip), vehicle: Klucel (hydroxypropylcellulose) (HPC) 99 % of control | dose: 3.0 mg/kg/injection, schedule: Q01DX009 (ip), vehicle: Klucel (hydroxypropylcellulose) (HPC) 92 % of control | dose: 6.0 mg/kg/injection, schedule: Q01DX009 (ip), vehicle: Klucel (hydroxypropylcellulose) (HPC) 108 % of control | dose: 12.0 mg/kg/injection, schedule: Q01DX009 (ip), vehicle: Klucel (hydroxypropylcellulose) (HPC) 91 % of control

COc1ccc(C2(O)OCC(COc3cc(C)c(Cl)c(C)c3)O2)cc1OC (stereo unspecified)
inactive: dose: 60.0 mg/kg/injection, schedule: Q01DX005 (ip), vehicle: DMSO 114 % of control | dose: 120.0 mg/kg/injection, schedule: Q01DX005 (ip), vehicle: DMSO 123 % of control | dose: 240.0 mg/kg/injection, schedule: Q01DX005 (ip), vehicle: DMSO 109 % of control

O=C(O)c1c(Cl)c(Cl)c(Cl)c(Cl)c1-c1c2cc(I)c(=O)c(I)c-2oc2c(I)c(O)c(I)cc12
inactive: dose: 12.5 mg/kg/injection, schedule: Q01DX009 (ip), vehicle: saline 103 % of control | dose: 25.0 mg/kg/injection, schedule: Q01DX009 (ip), vehicle: saline 88 % of control | [1] 92 % of control | [7] 88 % of control and 91 % of control | [2] 86 % of control | [8] 97 % of control

C[N+]1(C)CCCC(C(=O)c2ccccc2)C1 (stereo unspecified)
inactive: dose: 3.75 mg/kg/injection, schedule: Q01DX005 (ip), vehicle: saline 119 % of control | dose: 7.5 mg/kg/injection, schedule: Q01DX005 (ip), vehicle: saline 108 % of control | dose: 15.0 mg/kg/injection, schedule: Q01DX005 (ip), vehicle: saline 103 % of control | dose: 30.0 mg/kg/injection, schedule: Q01DX005 (ip), vehicle: saline 100 % of control and 101 % of control

N#C/C(=N\Nc1ccc(F)cc1)C(=O)C1CC1
inactive: dose: 15.0 mg/kg/injection, schedule: Q01DX005 (ip), vehicle: Klucel (hydroxypropylcellulose) (HPC) 100 % of control | dose: 30.0 mg/kg/injection, schedule: Q01DX005 (ip), vehicle: Klucel (hydroxypropylcellulose) (HPC) 106 % of control | [3] 98 % of control
